Data taken from patent US20160115225A1, “Methods of Reducing Methylglyoxal (MGO) Modification of Recombinant Proteins in Cell Culture” (AbbVie Inc., priority 2014, published 2016).

Columns and labels:
[1] = tested on: adalimumab producing cell line 2; experiment: Lys-C peptide mapping for MGO modification of adalimumab, shake flask culture, cell line 2; format: cell-based; conditions: Example 5; day 11 harvest; control 1.93%
Protocol: For shake flask experiments (Example 4), duplicate 500 mL Corning vented non-baffled shake flasks (200 mL working volume) were used for each condition. Similar to the seed train stage, the production stage shake flasks were kept in incubators maintained at 36° C. and 5% CO2 on shaker platforms that were set at 140 rpm.
Typical trypsin digestion for peptide mapping cleaves a denatured, reduced and alkylated protein at the carboxyl side of the two basic amino acids, lysine and arginine. Methylglyoxal (MGO) is a small molecule metabolite derived as a glycolysis byproduct which can modify arginine residues. […] The challenge of quantifying the amount of MGO modified peptide is that, it is not compared to an equivalent non-modified peptide but rather to two parental cleaved peptides. […] In order to determine a truly accurate direct measurement of an MGO-modified peptide, it is compared to its non-modified counterpart and expressed as a percentage. […] The result is a direct comparison of the same peptide with and without an MGO modification, which provides a high degree of accuracy in quantifying even trace levels of the modified species.
Procedure: Samples were dilated to a nominal concentration of 4 mg/mL. […] Samples were analyzed by LC/MS peptide mapping. […] Eluting peaks were monitored using a Thermo Scientific LTQ-Orbitrap Mass Spectrometer. […]

[2] = tested on: adalimumab producing cell line 1; experiment: Glucose consumption of the culture, cell line 1; format: cell-based; conditions: Example 3; arginine supplementation 4 g/l
Protocol: For the bioreactor (3 L Applikon) experiments (Examples 1, 2 and 3), 3 L, bioreactors (1.5 L working volume) were initiated at 35° C. (cell line 1) and 36° C. (cell line 2), 30% DO, 200 rpm, pH of 7.1. In some of the conditions, pH was ramped down to 6.8 in three days and kept at pH 6.8 thereafter. The inclusion of pH ramp for a particular condition is indicated by the final pH in the experimental design. If the final pH is 7.1, then it indicates no pH ramp was performed, whereas if the final pH is 6.8, a pH ramp was performed on day 3 from pH 7.1 to pH 6.8. In some of the conditions, a temperature shift was performed. When temperature shift was performed, the temperature was lowered to 33° C. Again, the conditions where such a temperature shift was performed can be identified from the final temperature in the experimental design. Cultures were run in extended batch mode with the addition of a desired amount of 40% glucose stock solution was fed based on glucose measurements.
To assess if this reduction in MGO modification in the test conditions also corresponded to lower glucose consumption, the specific glucose consumption rate was calculated across the two phases of culture: average over day 0-day 5 and average over day 5-10 (period post temperature shift) (FIG. 4b). The specific glucose consumption rate in the conditions with 2DDG supplementation was lower in both phases. […] In the period post the temperature shift, up to 50% reduction in specific glucose consumption rate relative to that in the control was observed. Thus, a clear correlation has been observed between reduced glucose consumption and the extent of MGO modification of the peptides.
To further assess the applicability of this strategy, the cumulative glucose consumption levels were also evaluated for these conditions in this study (FIG. 6b). This was calculated by using daily glucose concentration measurements via the offline analyzer and by accounting for glucose feeds when added. […]

SMILES | MGO modification (total) [1] | glucose consumption [2]
N[C@@H](CO)C(=O)O [Test 1, Serine] | 0.68% | 
N=C(N)NCCC[C@H](N)C(=O)O [arginine, Arginine] |  | no additional reduction
